Source: patent US20250387352A1 (SpringWorks Therapeutics, Inc., priority 2024, published 2025)

Key:
[1] = test system: NF1-associated plexiform neurofibromas (PNs); experiment: Phase 2b trial of mirdametinib in adult and pediatric patients with NF1-associated inoperable plexiform neurofibromas: efficacy by BICR volumetric MRI (REiNS); type: in vivo, human
Method: Study treatment was administered orally at a twice daily (BID) dose specified in the table below. Dosing was on a 28-day Cycle (4-week course) with a 3 week on/1 week off schedule. The treatment period will last for up to 24 Cycles followed by a 30-day Safety Follow-Up period.
A partial response was defined as PN decrease ≥20% compared to baseline using centrally read MRI volumetric analysis.
The major efficacy outcome measure was confirmed objective response rate (ORR), defined as the percentage of patients with complete response (disappearance of the target PN) or confirmed partial response (≥20% reduction in PN volume confirmed at a subsequent tumor assessment within 2-6 months during the 24-cycle treatment phase). Responses were assessed by blinded independent central review (BICR) using volumetric magnetic resonance imaging (MRI) analysis per Response Evaluation in Neurofibromatosis and Schwannomatosis (REINS) criteria. A secondary efficacy objective was to determine the duration of response for patients who achieved a confirmed objective response.

[2] = Clinical pharmacokinetic parameters of mirdametinib (Table A); details: human, in vivo
[3] = Metabolism and excretion of mirdametinib (radioactivity recovery); type: in vivo

SMILES: O=C(NOC[C@H](O)CO)c1ccc(F)c(F)c1Nc1ccc(I)cc1F (single isomer, unassigned) [mirdametinib]
- median time to onset of response ([1]; adult cohort): 7.8 months
- ORR also considering confirmed objective response after cycle 24 ([1]; adults): 45%
- median time to onset of response ([1]; pediatric cohort): 7.9 months
- ORR also considering confirmed objective response after cycle 24 ([1]; pediatric patients): 54%
- Time to steady-state [2]: Approximately 6 days
- Excretion: Radioactivity ([3]; In feces): In feces: 27%
- Excretion: Radioactivity ([3]; In urine): In urine: 68%
- Excretion: Unchanged mirdametinib ([3]; In urine): In urine: 0.7%
- Excretion: Unchanged mirdametinib ([3]; In urine and feces): In urine and feces: 9%
